Values after ≈ are worked out from the molar mass of the structure shown.
Assays:
Escherichia coli = experiment: Toxicity (MIC) of dialkylated lariat ethers on E. coli; format: cell-based; conditions: E. coli XL1 blue, 12 h, visual turbidity, read-out: minimum inhibitory concentration (MIC)
Procedure: (§1) The cyto-toxicity was determined by measuring the minimum inhibitory concentrations (MIC) for this series of dialkylated lariat ethers in the Gram-negative bacteria Escherichia coli, the Gram-positive bacteria Bacillus subtilis, and human embryonic kidney (HEK293T) cells.
On bacteria. XL1 blue strain Escherichia coli cells transformed with a pET28a plasmid (which contains a kanamycin resistance gene) were grown at 37° C. in 2 mL of LB medium (Miller's LB broth, Research Products International) supplemented with 50 μg/mL of kanamycin until the optical density (600 nm) reached 0.600. The starting density of bacteria in the remainder of the experiments was a 1/100 dilution of this bacterial density, which was split into 4 mL cultures. A series of 400, 100, 10 and 5 mM stock solutions of each dialkylated diaza(18-crown-6) compounds in trifluoroethanol (TFE) were diluted by adding to the 4 mL cultures until final concentrations of 400, 200, 100, 50, 20, 15, 10, 5, 4, 3, 2 and 1 μM were reached, with the final TFE concentration never >0.1% v/v. Negative controls in the presence of TFE 0.1% v/v or the absence of any treatment were done for each batch. The cultures were incubated at 37° C. with agitation for 12 h. Bacillus subtilis (168 WT) toxicity tests were carried out using an identical protocol, except for the addition of the antibiotic. […]

Bacillus subtilis = experiment: Toxicity (MIC) of dialkylated lariat ethers on B. subtilis; format: cell-based; conditions: B. subtilis 168 WT, 12 h, visual turbidity, read-out: minimum inhibitory concentration (MIC)
Procedure: as §1
On bacteria. XL1 blue strain Escherichia coli cells transformed with a pET28a plasmid (which contains a kanamycin resistance gene) were grown at 37° C. in 2 mL of LB medium (Miller's LB broth, Research Products International) supplemented with 50 μg/mL of kanamycin until the optical density (600 nm) reached 0.600. The starting density of bacteria in the remainder of the experiments was a 1/100 dilution of this bacterial density, which was split into 4 mL cultures. A series of 400, 100, 10 and 5 mM stock solutions of each dialkylated diaza(18-crown-6) compounds in trifluoroethanol (TFE) were diluted by adding to the 4 mL cultures until final concentrations of 400, 200, 100, 50, 20, 15, 10, 5, 4, 3, 2 and 1 μM were reached, with the final TFE concentration never >0.1% v/v. Negative controls in the presence of TFE 0.1% v/v or the absence of any treatment were done for each batch. The cultures were incubated at 37° C. with agitation for 12 h. Bacillus subtilis (168 WT) toxicity tests were carried out using an identical protocol, except for the addition of the antibiotic. […] Each compound was assayed a minimum of three times at each tested concentration.

HEK293T cells = format: cell-based; conditions: human, 48 h
Procedure: as §1
On HEK293T cells. Human embryonic kidneys (HEK293T) cells (Thermofisher Scientific) were grown attached in cell culture dishes, detached by trypsin treatment and diluted in Dulbecco's Modified Eagle's Medium (DMEM) medium supplemented with phenol red indicator (Thermofisher scientific) until the density reached 100,000 viable cells/mL. An aliquot of 1 mL of this cell suspension was added to each well of a 24-wells culture plate. After 2 h, when the cells were already attached, a custom amount of 400, 100, 10 or 5 mM TFE solution of the dialkylated diaza(18-crown-6) ether compounds were added until final concentration of 400, 200, 100, 50, 20, 15, 10, 8, 6, 5, 4, 3, 2 or 1 μM were reached. The final TFE concentration never was over 0.1% v/v. Negative controls in the presence of TFE 0.1% v/v or the absence of any treatment were done for each plate. The plates were cultured at 37° C. The MIC was determined as the lowest compound concentration that killed all the cells after 48 h, as judged by trypan blue dye. […]

B. subtilis membrane = experiment: DiSC3(5) depolarization assay, lariat ethers; format: cell-based, Bacillus subtilis; conditions: for DiSC3(5) release: 2 μM, cation-free dextrose solution
Procedure: Dialkylated lariat ethers LEC6-LEC14 were then tested for their ability to depolarize a B. subtilis membrane using the fluorescent dye 3,3-dipropylthiadicarbocyanine (DiSC3(5)), which undergoes membrane voltage-dependent partitioning between the intracellular and the extracellular medium. FIGS. 23-31 show the time course of the DiSC3(5) fluorescence due to the activity of dialkylated lariat ethers with alkyl chains 6 to 14 carbons in length. The experiment was performed in a NMDG-MeSO3 solution (100 mM NMDG, 10 mM HEPES, pH adjusted to 7.4 with methanesulfonic acid). The events are: t1, addition of dye; t2, addition of B. subtilis; t3, addition of a 2 M KCl or a 2 M NMDG-Cl solution up to a final concentration of 60 mM; t4, addition of dialkylated lariat ether up to 2 μM. Control experiments were performed that were similar to the two previously described experiments, with the exception that additional NMDG-MeSO3 solution without cells was added at timepoint t2. The experiments were normalized relative to the final fluorescence intensity in the control experiments, as described below.
To conduct the experiments shown in FIGS. 23-31, a 2-mL liquid culture of B. subtilis cells was grown at 37° C. in LB media until OD600=0.600, and then collected by centrifugation at 2000 rpm during 3 min. The bacteria were washed once in NMDG-MeSO3 solution (100 mM NMDG, 10 mM HEPES, pH adjusted to 7.4 with methanesulfonic acid) or dextrose solution (200 mM dextrose, 10 mM Tris, pH adjusted to 7.4 with HCl) depending on the experiment. The centrifugation step was repeated and the bacteria were resuspended until OD600=1.0 in the same solution. The working dye solution was a 200 μM solution of DiSC3(5) (3,3′-dipropylthiadicarbocyanine iodide; Tokyo Chemical Industry) in DMSO. […] After 150 sec (timepoint t3, 250 sec) the fluorescence stabilized to a minimum intensity and 100 μL of 2M NMDG-Cl, 2M NaCl or 2 M KCl solution was added to reach a about 60 mM final concentration of the salt. […] Fluorescence intensity was recorded each second using a Horiba Fluoromax 4 spectrometer (excitation wavelength=640 nm; emission wavelength=670 nm). […] To normalize the fluorescence, experiments in the same conditions but without adding bacteria were performed, normalization was done by dividing the fluorescence by the final fluorescence level of these experiments.
Cell hyperpolarization (more negatively charged inside the cell) results in an uptake of the dye, while cell membrane depolarization (more positively charged inside the cell) results in a release of the dye. The accumulation of the dye in the interior of the cell can be detected by a decrease in fluorescence due to self-quenching, which enables the dye to be utilized as an indirect reporter of changes in cell membrane voltage. […]

CCCCCCCCCCN1CCOCCOCCN(CCCCCCCCCC)CCOCCOCC1 [LEC10, Didecyl diaza(18-crown-6)]
MIC (Escherichia coli): 10 µM (≈ 5.43 µg/mL) | MIC (Bacillus subtilis): 2 µM (≈ 1.09 µg/mL) | minimum inhibitory concentration (MIC) (HEK293T cells): 6 µM (≈ 3.26 µg/mL) | relative DiSC3(5) release in the presence of different cations (B. subtilis membrane; 2 μM compound, 60 mM KCl, NaCl or NMDG-Cl, NMDG-MeSO3 solution, 25° C): no significant differences | DiSC3(5) release (B. subtilis membrane; 60 mM KCl added): large DiSC3(5) release | DiSC3(5) release (B. subtilis membrane; absence of any external cation): same effect was also observed

— patent publication US20230060873A1, “COMPOUNDS AND METHODS FOR FORMING ION CHANNELS IN BIOLOGICAL MEMBRANES” (Washington University, priority 2021, published 2023)
